Source: PMC10819888, “Benzimidazole-Based Derivatives as Apoptotic Antiproliferative Agents: Design, Synthesis, Docking, and Mechanistic Studies” (Molecules, 2024)

What was measured:
Test in all cases: NCI-60 one-dose assay
Format in all cases: cell-based
A498 = settings: Homo sapiens, A498 (Renal Cancer), read-out: Cell Inhibition Percent
Experimental: (§1) The final compounds were submitted to the National Cancer Institute, Bethesda, USA, for screening in vitro for anti-cancer. […] compounds, 4a–j, 5, and 6, were selected according to the Development Therapeutic Program (DTP) protocol. The selected compounds were evaluated for their in vitro cytotoxic activity against a panel of sixty cancer cell lines (NCI-60 cell line panel) derived from six cell lines panel of leukemia, nine cell lines of lung cancer, six cell lines of CNS cancer, seven cell lines of colon cancer, eight cell lines of melanoma, six cell lines of ovarian cancer, eight cell lines of renal cancer, two cell lines of prostate cancer, and eight cell lines of breast cancer, representing the full nine human systems as leukemia, melanoma, and cancers of the lung, colon, brain, breast, ovary, kidney, and prostate.
(§2) The selected compounds 4a–j, 5, and 6 were tested at a single concentration of 10 µM. The screening results for the selected compounds are illustrated in Table 1.
(§3) The NCI anti-cancer screening methodology has been described in detail elsewhere (http://www.dtp.nci.nih.gov, accessed on 20 February 2021). Following the Drug Evaluation Branch protocol, National Cancer Institute, Bethesda, USA, a primary anti-cancer assay was performed on approximately 60 human tumor cell line panels derived from nine neoplastic diseases.

A549/ATCC = settings: Homo sapiens, A549/ATCC (Non-Small Cell Lung Cancer), read-out: Cell Inhibition Percent
Experimental: as §1, §2, §3

BT-549 = settings: Homo sapiens, BT-549 (Breast Cancer), read-out: Cell Inhibition Percent
Experimental: as §1, §2, §3

HCC-2998 = settings: Homo sapiens, HCC-2998 (Colon Cancer), read-out: Cell Inhibition Percent
Experimental: as §1, §2, §3

HCT-15 = settings: Homo sapiens, HCT-15 (Colon Cancer), read-out: Cell Inhibition Percent
Experimental: as §1, §2, §3

HL-60(TB) = settings: Homo sapiens, HL-60(TB) (Leukemia), read-out: Cell Inhibition Percent
Experimental: as §1, §2, §3

HOP-62 = settings: Homo sapiens, HOP-62 (Non-Small Cell Lung Cancer), read-out: Cell Inhibition Percent
Experimental: as §1, §2, §3

HOP-92 = settings: Homo sapiens, HOP-92 (Non-Small Cell Lung Cancer), read-out: Cell Inhibition Percent
Experimental: as §1, §2, §3

HS 578T = settings: Homo sapiens, HS 578T (Breast Cancer), read-out: Cell Inhibition Percent
Experimental: as §1, §2, §3

HT29 = settings: Homo sapiens, HT-29, HT29 (Colon Cancer), read-out: Cell Inhibition Percent
Experimental: as §1, §2, §3

LOX IMVI = settings: Homo sapiens, LOX IMVI (Melanoma), read-out: Cell Inhibition Percent
Experimental: as §1, §2, §3

M14 = settings: Homo sapiens, M14 (Melanoma), read-out: Cell Inhibition Percent
Experimental: as §1, §2, §3

MALME-3M = settings: Homo sapiens, MALME-3M (Melanoma), read-out: Cell Inhibition Percent
Experimental: as §1, §2, §3

MDA-MB-435 = settings: Homo sapiens, MDA-MB-435 (Melanoma), read-out: Cell Inhibition Percent
Experimental: as §1, §2, §3

MDA-MB-468 = settings: Homo sapiens, MDA-MB-468 (Breast Cancer), read-out: Cell Inhibition Percent
Experimental: as §1, §2, §3

NCI-H226 = settings: Homo sapiens, NCI-H226 (Non-Small Cell Lung Cancer), read-out: Cell Inhibition Percent
Experimental: as §1, §2, §3

NCI-H23 = settings: Homo sapiens, NCI-H23 (Non-Small Cell Lung Cancer), read-out: Cell Inhibition Percent
Experimental: as §1, §2, §3

NCI-H322M = settings: Homo sapiens, NCI-H322M (Non-Small Cell Lung Cancer), read-out: Cell Inhibition Percent
Experimental: as §1, §2, §3

NCI-H460 = settings: Homo sapiens, NCI-H460 (Non-Small Cell Lung Cancer), read-out: Cell Inhibition Percent
Experimental: as §1, §2, §3

OVCAR-4 = settings: Homo sapiens, OVCAR-4 (ovarian cancer), read-out: Cell Inhibition Percent
Experimental: as §1, §2, §3

OVCAR-5 = settings: Homo sapiens, OVCAR-5 (ovarian cancer), read-out: Cell Inhibition Percent
Experimental: as §1, §2, §3

RPMI-8226 = settings: Homo sapiens, RPMI-8226 (Leukemia), read-out: Cell Inhibition Percent
Experimental: as §1, §2, §3

SF-268 = settings: Homo sapiens, SF-268 (CNS cancer), read-out: Cell Inhibition Percent
Experimental: as §1, §2, §3

SK-MEL-2 = settings: Homo sapiens, SK-MEL-2 (Melanoma), read-out: Cell Inhibition Percent
Experimental: as §1, §2, §3

SK-MEL-5 = settings: Homo sapiens, SK-MEL-5 (Melanoma), read-out: Cell Inhibition Percent
Experimental: as §1, §2, §3

SNB-75 = settings: Homo sapiens, SNB-75 (CNS cancer), read-out: Cell Inhibition Percent
Experimental: as §1, §2, §3

SR = settings: Homo sapiens, SR (Leukemia), read-out: Cell Inhibition Percent
Experimental: as §1, §2, §3

T-47D = settings: Homo sapiens, T47D, T-47D (Breast Cancer), read-out: Cell Inhibition Percent
Experimental: as §1, §2, §3

UACC-257 = settings: Homo sapiens, UACC-257 (Melanoma), read-out: Cell Inhibition Percent
Experimental: as §1, §2, §3

UACC-62 = settings: Homo sapiens, UACC-62 (Melanoma), read-out: Cell Inhibition Percent
Experimental: as §1, §2, §3

UO-31 = settings: Homo sapiens, UO-31 (Renal Cancer), read-out: Cell Inhibition Percent
Experimental: as §1, §2, §3

COc1ccc(C=NNC(=O)c2ccc3[nH]c(-c4ccc(Cl)cc4)nc3c2)cc1 [Compound 4g, N′-(4-Methoxybenzylidene)-2-(4-chlorophenyl)-1H-benzimidazole-5-carbohydrazide]
inhibition at 10 µM (A498): 33.4%
inhibition at 10 µM (A549/ATCC): 88%
inhibition at 10 µM (BT-549): 43.1%
inhibition at 10 µM (HCC-2998): 48.9%
inhibition at 10 µM (HCT-15): 42.5%
inhibition at 10 µM (HL-60(TB)): 3.67%
inhibition at 10 µM (HOP-62): 69.7%
inhibition at 10 µM (HOP-92): 64%
inhibition at 10 µM (HS 578T): 67.7%
inhibition at 10 µM (HT29): 78.1%
inhibition at 10 µM (LOX IMVI): 99.1%
inhibition at 10 µM (M14): 73.8%
inhibition at 10 µM (MALME-3M): 93.5%
inhibition at 10 µM (MDA-MB-435): 31.5%
inhibition at 10 µM (MDA-MB-468): 75.8%
inhibition at 10 µM (NCI-H226): 26.2%
inhibition at 10 µM (NCI-H23): 58.5%
inhibition at 10 µM (NCI-H322M): 44.1%
inhibition at 10 µM (NCI-H460): 94.1%
inhibition at 10 µM (OVCAR-4): 131%
inhibition at 10 µM (OVCAR-5): 22.7%
inhibition at 10 µM (RPMI-8226): 40.8%
inhibition at 10 µM (SF-268): 80.1%
inhibition at 10 µM (SK-MEL-2): 35.9%
inhibition at 10 µM (SK-MEL-5): 66.3%
inhibition at 10 µM (SNB-75): 8.15%
inhibition at 10 µM (SR): 99.3%
inhibition at 10 µM (T-47D): 76.7%
inhibition at 10 µM (UACC-257): 45.6%
inhibition at 10 µM (UACC-62): 69.1%
inhibition at 10 µM (UO-31): 18.1%

O=C(NN=Cc1ccc(Cl)cc1Cl)c1ccc2[nH]c(-c3ccc(Cl)cc3)nc2c1 [Compound 4f, N′-(2,4-Dichlorobenzylidene)-2-(4-chlorophenyl)-1H-benzimidazole-5-carbohydrazide]
inhibition at 10 µM (A498): 36.7%
inhibition at 10 µM (A549/ATCC): 4.7%
inhibition at 10 µM (BT-549): 0%
inhibition at 10 µM (HCC-2998): 3.25%
inhibition at 10 µM (HCT-15): 0%
inhibition at 10 µM (HL-60(TB)): 5.98%
inhibition at 10 µM (HOP-62): 5.89%
inhibition at 10 µM (HOP-92): 0%
inhibition at 10 µM (HS 578T): 10.4%
inhibition at 10 µM (HT29): 2.18%
inhibition at 10 µM (LOX IMVI): 18.9%
inhibition at 10 µM (M14): 17.1%
inhibition at 10 µM (MALME-3M): 9.55%
inhibition at 10 µM (MDA-MB-435): 0%
inhibition at 10 µM (MDA-MB-468): 0%
inhibition at 10 µM (NCI-H226): 18.8%
inhibition at 10 µM (NCI-H23): 4.26%
inhibition at 10 µM (NCI-H322M): 0%
inhibition at 10 µM (NCI-H460): 1.37%
inhibition at 10 µM (OVCAR-4): 0%
inhibition at 10 µM (OVCAR-5): 0%
inhibition at 10 µM (RPMI-8226): 15.4%
inhibition at 10 µM (SF-268): 3.63%
inhibition at 10 µM (SK-MEL-2): 2.9%
inhibition at 10 µM (SK-MEL-5): 2.92%
inhibition at 10 µM (SNB-75): 12.4%
inhibition at 10 µM (SR): 54.6%
inhibition at 10 µM (T-47D): 12.3%
inhibition at 10 µM (UACC-257): 6.59%
inhibition at 10 µM (UACC-62): 0%
inhibition at 10 µM (UO-31): 27.8%
